Results taken from patent publication US8536168B2 (Novartis AG, priority 2007, dated 2013).
Where two headings read alike, the source gives them in different places.

Columns and labels:
[1] = target: human Smoothened receptor (Homo sapiens, UniProt Q99835); assay: Smo binding assay, displacement of radio-labeled smoothened agonist, filter binding format (human); conditions: displacement of small molecule agonist of Smoothened, read-out: Human Smo bdg., IC50
Source text: A Smo binding assay was developed using radio-labeled smoothened agonist for compound competition. Table 9 lists the IC50 for displacement of a small molecule agonist of Smoothened determined in a filter binding format for the mouse and human Smoothened receptor.

[2] = target: mouse Smoothened receptor (Mus musculus, UniProt P56726); assay: Smo binding assay, displacement of radio-labeled smoothened agonist, filter binding format (mouse); conditions: displacement of small molecule agonist of Smoothened, read-out: Mouse Smo bdg., IC50
Source text: A Smo binding assay was developed using radio-labeled smoothened agonist for compound competition.

[3] = system: Gli-luciferase activity; assay: Reporter gene assay (RGA) in TMHh12 cells, antagonism of Gli-luciferase activity in the presence of a Smo agonist; format: cell-based
Experimental: Activity of the compounds was evaluated using a reporter gene assay (RGA) in TMHh12 cells.

[4] = 25 nM small molecule Smo agonist, read-out: RGA (25 nM Smo agonist) IC50
[5] = read-out: RGA (1 nM Smo agonist) IC50, 1 nM small molecule Smo agonist

Chain of human Smoothened receptor (Q99835 28-787): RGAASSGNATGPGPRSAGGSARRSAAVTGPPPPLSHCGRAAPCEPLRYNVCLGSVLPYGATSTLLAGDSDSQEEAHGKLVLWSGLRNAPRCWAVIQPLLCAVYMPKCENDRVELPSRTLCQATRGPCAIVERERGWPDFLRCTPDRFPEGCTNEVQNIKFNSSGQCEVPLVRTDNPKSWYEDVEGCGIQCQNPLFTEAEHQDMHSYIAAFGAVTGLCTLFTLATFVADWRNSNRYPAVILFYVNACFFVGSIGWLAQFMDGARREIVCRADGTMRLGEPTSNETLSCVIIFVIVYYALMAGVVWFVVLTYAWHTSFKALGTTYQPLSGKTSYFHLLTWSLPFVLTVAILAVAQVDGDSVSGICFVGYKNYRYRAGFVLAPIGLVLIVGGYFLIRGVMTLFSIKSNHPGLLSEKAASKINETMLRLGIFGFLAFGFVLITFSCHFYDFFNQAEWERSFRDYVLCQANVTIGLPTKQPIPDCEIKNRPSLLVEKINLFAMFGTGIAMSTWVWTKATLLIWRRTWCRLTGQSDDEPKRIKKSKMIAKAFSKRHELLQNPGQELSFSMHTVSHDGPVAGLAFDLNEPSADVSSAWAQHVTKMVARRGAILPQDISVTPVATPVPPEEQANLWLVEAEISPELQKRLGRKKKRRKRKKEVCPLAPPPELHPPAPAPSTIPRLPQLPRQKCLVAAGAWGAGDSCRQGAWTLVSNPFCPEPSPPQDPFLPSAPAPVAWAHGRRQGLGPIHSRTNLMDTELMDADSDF
Chain of mouse Smoothened receptor (P56726 33-793): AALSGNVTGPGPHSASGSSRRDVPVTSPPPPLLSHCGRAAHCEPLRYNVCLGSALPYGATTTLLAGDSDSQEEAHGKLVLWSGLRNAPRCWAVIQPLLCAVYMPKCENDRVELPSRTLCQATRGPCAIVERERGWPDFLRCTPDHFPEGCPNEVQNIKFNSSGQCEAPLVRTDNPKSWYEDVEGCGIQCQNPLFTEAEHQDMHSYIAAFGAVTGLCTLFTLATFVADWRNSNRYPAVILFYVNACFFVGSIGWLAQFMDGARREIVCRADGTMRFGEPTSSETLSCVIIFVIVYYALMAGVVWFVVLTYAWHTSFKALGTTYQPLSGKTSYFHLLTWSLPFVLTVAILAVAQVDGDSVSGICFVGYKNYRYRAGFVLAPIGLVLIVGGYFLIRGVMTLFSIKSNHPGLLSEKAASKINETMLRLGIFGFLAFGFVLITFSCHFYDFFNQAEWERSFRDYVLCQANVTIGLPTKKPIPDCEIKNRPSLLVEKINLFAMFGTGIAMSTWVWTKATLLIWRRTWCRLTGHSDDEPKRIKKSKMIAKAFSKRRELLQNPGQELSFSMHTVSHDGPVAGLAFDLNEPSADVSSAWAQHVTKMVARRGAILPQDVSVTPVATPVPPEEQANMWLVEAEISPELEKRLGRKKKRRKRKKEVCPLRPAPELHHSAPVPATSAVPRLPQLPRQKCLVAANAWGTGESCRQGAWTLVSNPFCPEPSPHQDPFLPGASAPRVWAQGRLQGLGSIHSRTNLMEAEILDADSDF

IC50 [1] [µM]	IC50 [2] [µM]	IC50 [3, 4] [µM]	IC50 [3, 5] [µM]	SMILES
< 0.1	< 0.1	< 0.1	< 0.1	CC(C)(O)c1ccc(N2CCN(c3nnc(Cc4ccc(F)cc4F)c4ccccc34)CC2)nc1 [Example 193]
< 0.1	< 0.1	0.1 to 1	< 0.1	Cc1ccccc1Cc1nnc(N2CCN(c3ccc(C(C)(C)O)cn3)CC2)c2ccccc12 [Example 194]
< 0.1	< 0.1	< 0.1	< 0.1	C[C@H]1CN(c2ccc(C(C)(C)O)cn2)CCN1c1nnc(Cc2ccc(F)cc2F)c2ccccc12 [Example 195]
< 0.1	< 0.1	< 0.1	< 0.1	C[C@H]1CN(c2ccc(C(C)(C)O)cn2)CCN1c1nnc(Cc2ccccc2Cl)c2ccccc12 [Example 196]
< 0.1	< 0.1	0.1 to 1	< 0.1	CN(CCO)C(=O)c1ccc(N2CCN(c3nnc(Cc4ccc(F)cc4)c4ccccc34)CC2)nc1 [Example 198, 6-{4-[4-(4-Fluoro-benzyl)-phthalazin-1-yl]-piperazin-1-yl}-N-(2-hydroxyethyl)-N-methyl-nicotinamide]
0.1 to 1	0.1 to 1	0.1 to 1	< 0.1	CN(CCO)C(=O)c1ccc(N2CCN(c3nnc(Cc4ccc(F)cc4F)c4ccccc34)CC2)nc1 [Example 199]
< 0.1	< 0.1	0.1 to 1	< 0.1	CN(CCO)C(=O)c1ccc(N2CCN(c3nnc(Cc4ccccc4Cl)c4ccccc34)CC2)nc1 [Example 200]
< 0.1	< 0.1	0.1 to 1	< 0.1	CN(CCO)C(=O)c1ccc(N2CCN(c3nnc(Cc4ccc(Cl)c(Cl)c4)c4ccccc34)CC2)nc1 [Example 201]
0.1 to 1	0.1 to 1	1 to 10	0.1 to 1	CCOC(=O)c1ccc(N2CCN(c3nnc(CN4CCOCC4)c4ccccc34)CC2)nc1 [Example 203, 6-[4-(4-Morpholin-4-ylmethyl-phthalazin-1-yl)-piperazin-1-yl]-nicotinic acid ethyl ester]
0.1 to 1	0.1 to 1	0.1 to 1	< 0.1	CCC(=O)NCc1ccc(N2CCN(c3nnc(Cc4ccccc4)c4ccccc34)CC2)nc1 [Example 207]
0.1 to 1	0.1 to 1	< 0.1	< 0.1	COCC(=O)NCc1ccc(N2CCN(c3nnc(Cc4ccccc4)c4ccccc34)CC2)nc1 [Example 208]
< 0.1	< 0.1	< 0.1	< 0.1	CC(C)CC(=O)NCc1ccc(N2CCN(c3nnc(Cc4ccccc4)c4ccccc34)CC2)nc1 [Example 210]
< 0.1	< 0.1	0.1 to 1	< 0.1	CC(C)OC(=O)NCc1ccc(N2CCN(c3nnc(Cc4ccccc4)c4ccccc34)CC2)nc1 [Example 211]
< 0.1	< 0.1	0.1 to 1	< 0.1	CN(C)CC(=O)NCc1ccc(N2CCN(c3nnc(Cc4ccccc4)c4ccccc34)CC2)nc1 [Example 212]
0.1 to 1	0.1 to 1	0.1 to 1	< 0.1	CC(O)CC(=O)NCc1ccc(N2CCN(c3nnc(Cc4ccccc4)c4ccccc34)CC2)nc1 (stereo not shown) [Example 213]
< 0.1	< 0.1	< 0.1	< 0.1	CC(=O)NCc1ccc(N2CCN(c3nnc(Cc4ccccc4)c4ccccc34)[C@@H](C)C2)nc1 [Example 216]
1 to 10	1 to 10	1 to 10	< 0.1	CN(C)Cc1ccc(N2CCN(c3nnc(Cc4ccccc4)c4ccccc34)CC2)nc1 [Example 217, {6-[4-(4-Benzyl-phthalazin-1-yl)-piperazin-1-yl]-pyridin-3-ylmethyl}-dimethyl-amine]
< 0.1	< 0.1	0.1 to 1	0.1 to 1	OC(c1ccc(N2CCN(c3nnc(Cc4ccccc4)c4ccccc34)CC2)nc1)C1CC1 (stereo not shown) [Example 219]
< 0.1	< 0.1	< 0.1	< 0.1	CC(C)C(O)c1ccc(N2CCN(c3nnc(Cc4ccccc4)c4ccccc34)CC2)nc1 (stereo not shown) [Example 220]

IC50 [1] [µM]	IC50 [2] [µM]	IC50 [3, 4] [µM]	IC50 [3, 5] [µM]	SMILES
< 0.1	< 0.1	0.1 to 1	< 0.1	OC(c1ccc(N2CCN(c3nnc(Cc4ccccc4)c4ccccc34)CC2)nc1)C1CCCC1 (stereo not shown) [Example 221]
< 0.1	< 0.1	< 0.1	< 0.1	c1ccc(Cc2nnc(N3CCN(c4ccc(CN5CCOCC5)cn4)CC3)c3ccccc23)cc1 [Example 222, 1-Benzyl-4-[4-(5-morpholin-4-ylmethyl-pyridin-2-yl)-piperazin-1-yl]-phthalazine]
0.1 to 1	< 0.1	0.1 to 1	< 0.1	OC1CCN(Cc2ccc(N3CCN(c4nnc(Cc5ccccc5)c5ccccc45)CC3)nc2)C1 (stereo not shown) [Example 223]
0.1 to 1	0.1 to 1	0.1 to 1	< 0.1	c1ccc(Cc2nnc(N3CCN(c4ccc(CNC5CCOCC5)cn4)CC3)c3ccccc23)cc1 [Example 225]
0.1 to 1	< 0.1	0.1 to 1	< 0.1	CN(Cc1ccc(N2CCN(c3nnc(Cc4ccccc4)c4ccccc34)CC2)nc1)C1CCOCC1 [Example 226]
0.1 to 1	< 0.1	0.1 to 1	< 0.1	FC1CCN(Cc2ccc(N3CCN(c4nnc(Cc5ccccc5)c5ccccc45)CC3)nc2)CC1 [Example 227]
< 0.1	< 0.1	0.1 to 1	0.1 to 1	FC1(F)CCN(Cc2ccc(N3CCN(c4nnc(Cc5ccccc5)c5ccccc45)CC3)nc2)CC1 [Example 228]
< 0.1	< 0.1	0.1 to 1	0.1 to 1	FC1(F)CN(Cc2ccc(N3CCN(c4nnc(Cc5ccccc5)c5ccccc45)CC3)nc2)C1 [Example 229]
0.1 to 1	0.1 to 1	0.1 to 1	< 0.1	c1ccc(Cc2nnc(N3CCN(c4ccc(CNC5COC5)cn4)CC3)c3ccccc23)cc1 [Example 230]
< 0.1	< 0.1	< 0.1	< 0.1	c1ccc(Cc2nnc(N3CCN(c4ccc(CN(C5COC5)C5COC5)cn4)CC3)c3ccccc23)cc1 [Example 231]
0.1 to 1	0.1 to 1	0.1 to 1	< 0.1	CN(C)C(=O)Nc1ccc(N2CCN(c3nnc(Cc4ccccc4)c4ccccc34)CC2)nc1 [Example 238, 3-{6-[4-(4-Benzyl-phthalazin-1-yl)-piperazin-1-yl]-pyridin-3-yl}-1,1-dimethyl-urea]
0.1 to 1	< 0.1	0.1 to 1	< 0.1	COC(=O)Nc1ccc(N2CCN(c3nnc(Cc4ccccc4)c4ccccc34)CC2)nc1 [Example 239, {6-[4-(4-Benzyl-phthalazin-1-yl)-piperazin-1-yl]-pyridin-3-yl}-carbamic acid methyl ester]
< 0.1	< 0.1	0.1 to 1	0.1 to 1	FC(F)(F)c1ccc(N2CCN(c3nnc(Cc4ccccc4)c4c3C=CCC4)CC2)nc1 [Example 240, 4-Benzyl-1-(4-(5-(trifluoromethyl)pyridin-2-yl)piperazin-1-yl)-5,6-dihydrophthalazine]
1 to 10	1 to 10	10 to 40	1 to 10	Cc1c(Cc2ccccc2)nnc(N2CCN(c3ccc(C(F)(F)F)cn3)CC2)c1CNCc1ccccc1 [Example 241, N-benzyl-1-(6-benzyl-5-methyl-3-(4-(5-(trifluoromethyl)pyridin-2-yl)piperazin-1-yl)pyridazin-4-yl)methanamine]
1 to 10	1 to 10	1 to 10	1 to 10	Cc1c(N2CCN(c3ccc(C(F)(F)F)cn3)CC2)nnc(Cc2ccccc2)c1CNCc1ccccc1 [Example 242, N-benzyl-1-(3-benzyl-5-methyl-6-(4-(5-(trifluoromethyl)pyridin-2-yl)piperazin-1-yl)pyridazin-4-yl)methanamine]
1 to 10	0.1 to 1	1 to 10	1 to 10	COc1ccc(CN2Cc3c(Cc4ccccc4)nnc(N4CCN(c5ccc(C(F)(F)F)cn5)CC4)c3C2)cc1 [Example 243, 1-benzyl-6-(4-methoxybenzyl)-4-(4-(5-(trifluoromethyl)pyridin-2-yl)piperazin-1-yl)-6,7-dihydro-5H-pyrrolo[3,4-d]pyridazine]
0.1 to 1	0.1 to 1	1 to 10	1 to 10	CC(C)n1cc2c(Cc3ccccc3)nnc(N3CCN(c4ccc(C(F)(F)F)cn4)CC3)c2c1 [Example 244, 1-benzyl-6-isopropyl-4-(4-(5-(trifluoromethyl)pyridin-2-yl)piperazin-1-yl)-6H-pyrrolo[3,4-d]pyridazine]
0.1 to 1	0.1 to 1	1 to 10	< 0.1	FC(F)(F)c1ccc(N2CCN(c3nnc(Cc4ccccc4)c4occc34)CC2)nc1 [Example 245, 7-Benzyl-4-[4-(5-trifluoromethyl-pyridin-2-yl)-piperazin-1-yl]-furo[2,3-d]pyridazine]
